Test results as given in publication PMC8485325, “Penetrating the Blood-Brain Barrier with New Peptide–Porphyrin Conjugates Having anti-HIV Activity” (Bioconjugate Chemistry, 2021).
Read-outs that look alike come from different tables or passages of the source. Ends that are not written are not given here.

Legend:
bEnd.3 cell monolayers [1] = test system: bEnd.3 cell monolayers
Description: (§1) Figure 4 PPCs translocation across a bEnd.3 in vitro BBB model. (A) bEnd.3 in vitro BBB model transwell system. The insert, or apex, corresponds to the blood side, while the base (bottom chamber) corresponds to the brain side. (B) After formation of a monolayer, 10 μM of each conjugate was added to the apical side of the tissue culture inserts. After incubation for 24 h, samples from the basolateral side were collected, and the percentage of translocation of each conjugate (black) was calculated. FD4 permeability (gray) was measured to determine monolayer integrity post-PPCs translocation.
After 24 h incubation with conjugates, an in vitro integrity assay was performed.[19] Briefly, cells were washed twice with PBS and once with DMEM medium without phenol red. Then, previously diluted 4 kDa fluorescein isothiocyanate-dextran (FD4) (Sigma-Aldrich, Spain) in DMEM without phenol red to an absorbance of 0.1 was added to the apical side and incubated for 2 h. Samples were collected from the apical and basolateral side, and fluorescence intensity was measured with λext = 493 nm and λem = 520 nm, using a Varioskan Lux plate reader. The integrity of the barrier was determined as follows: [drawing 2] 2 where Fi is the recovered fluorescence intensity, Fcells is the recovered fluorescence intensity from cells without FD4 incubation, FFD4 is the fluorescence intensity of total FD4 initially added to the transwell apical side, and FMedium is the fluorescence intensity of DMEM medium without phenol red.

bEnd.3 cell monolayers [2] = test: In vitro BBB translocation assay (bEnd.3 transwell model)
Text: Assessment of PPC efficacy in BBB translocation was done in a transwell setup (Figure 4A) using bEnd.3 cell monolayers.[44] The bEnd.3 in vitro BBB model consists of a monolayer of cells expressing a range of essential BBB transporters, also bearing the low permeability characteristic of the BBB, suitable for this study.[44]−[46]
as §1
An in vitro BBB model consisting of endothelial cells growing on the apical side of a porous membrane was used.[46] bEnd.3 cells (ATTCC-CRL2299) were cultured as a monolayer on T-flasks in DMEM supplemented with 10% fetal bovine serum (FBS), 1% penicillin/streptomycin. Cells were grown in a humidified atmosphere of 5% CO2 at 37 °C (MCO-18AIC (UV), Sanyo, Japan) with the medium changed every other day. Cells were allowed to grow until confluence in a culture T-flask, and then carefully harvested with trypsin-EDTA and seeded (3500 cells/well) onto fibronectin-coated tissue culture 24-well inserts (transparent polyester membrane with 1.0 μm pores) (BD Falcon, USA). The medium was changed every other day for 10 days, after which cells were washed twice with 1× PBS and once with DMEM medium without phenol red. Next, conjugates diluted in DMEM without phenol red to a final concentration of 10 μM were added to the apical side of the in vitro BBB model (Figure 4A). Experiments were performed on different days using independently grown cell cultures.
The translocation of conjugates was determined by fluorescence intensity (λexc = 380 nm and λem = 625 nm for MP conjugates, and λexc = 380 nm and λem = 675 nm for PP conjugates). P3-CF and P5-CF, peptides labeled with 5(6)-Carboxyfluorescein (CF), were used as positive translocation controls (λexc = 492 nm and λem = 517 nm). After 24 h incubation, samples from the apical and basolateral side were collected and analyzed. Fluorescence was measured using a Varioskan Lux plate reader (Thermo Scientific, MA, USA). The percentage (%) of translocation was calculated using the following equation: [drawing 1] 1 where Fi is the recovered fluorescence intensity, Fcells is the recovered fluorescence intensity from cells without the conjugate, and Fconjugate is the fluorescence intensity of total peptide initially added to the transwell apical side.

HIV-1NL4-3 = test: In vitro inhibition of HIV-1NL4-3 infection of TZM-bl cells (luciferase reporter); assay type: cell-based
Description: Viral supernatants harvested from pNL4-3-transfected HEK293T cells were titered through the Reed-Muench method[56] based on HIV-1NL4–3 infectivity against TZM-bl cell cultures. TZM-bl cells were seeded at 2 × 10^4 cells/well in tissue culture-treated 96-well microplates from Corning (Corning, NY, USA), and incubated for 24 h. Cells were then incubated with 2-fold serial dilutions of viral supernatants for 3 h, after which the supernatant was replaced with fresh complete medium. After 45 h, TZM-bl cell infection was quantified through luciferase reporter-gene expression levels, under the control of an HIV-1 TAT-dependent LTR promoter[57] using the Luc-Screen luciferase chemiluminescence detection system. Luminescence was measured in an Infinite M200 microplate reader from Tecan (Männedorf, Switzerland). […] Titration was performed with at least four replicates to allow accurate estimation of TCID50 in viral supernatants.
The inhibitory activity of conjugates on HIV-1NL4–3 entry into TZM-bl cells was evaluated as previously described.[58] TZM-bl cells were seeded at 2 × 10^4 cells/well in tissue culture-treated 96-well microplates and incubated for 24 h. HIV-1NL4–3 viral supernatants (100 or 10 TCID50/well) were then incubated for 1 h with 2-fold serial dilutions of either nonconjugated peptide and porphyrins or conjugates, after which the infection mixture was added to TZM-bl cells. Untreated cells (in the absence of peptide–porphyrin conjugate) were used as control. Virions were incubated with cells for 3 h, after which cells were washed to remove unbound virions and new medium was added. After 45 h, infection was quantified by the Luc-Screen chemiluminescence assay. Measurements were performed in an Infinite M200 microplate reader. […] At least three independent experiments were performed for each assay.

[3] = Cell viability assay (CellTiter-Blue); assay type: cell-based, murine; settings: for CC50 at 24 h: mouse
Description: (§2) bEnd.3 cells were plated in fibronectin precoated 96-well flat-bottom clear black polystyrene plate (Corning, New York, USA) as previously described. Cells were then cultured in complete medium at 37 °C in a 5% CO2 atmosphere, with medium replaced every 2 days. […] Viability was evaluated by the CellTiter-Blue assay (Promega, Wisconsin, USA), based on resazurin reduction into highly fluorescent resorufin by metabolically active cells. By distinguishing metabolic from nonmetabolic cells, cytotoxicity can be indirectly determined. After incubation, cells were washed with PBS, pH 7.4, and 15 μL of CellTiterBlue reagent in 100 μL of complete medium was added to the cells and incubated for 1.5 h at 37 °C in 5% CO2. Fluorescence was measured at 590 nm, with excitation at 560 nm, using an Infinite F200 plate reader (Tecan, Switzerland). Complete medium and medium containing 0.25% Triton X-100 were used as positive and negative controls (100% and 0% viability), respectively. Cell viability (%) was determined using the following equation: [drawing 5] 5 where […] is the fluorescence emission of conjugate-treated cells, Fnontreated is the fluorescence emission of the control nontreated cells, and Fblank is the fluorescent emission of CellTiter reagent in complete medium without cells.

human erythrocytes = test: Hemolysis assay; assay type: cell-based
Description: Plates were incubated for 1 h at 37 °C with 100 rpm stirring, then centrifuged for 5 min at 4000 rpm, 4 °C, and supernatants were transferred to a 96-well flat-bottom polystyrene plate (Corning). Hemolysis was assessed by hemoglobin (Hb) release, measured by absorbance at 415 nm in a Varioskan LUXTM microplate reader (Thermo Fisher Scientific, Inc.). As porphyrin and Hb spectra are partially overlapping, to exclude porphyrin interference in Hb quantification a blank reading of each PPC (no hRBCs, TN buffer +1% DMSO) was subtracted from each measurement. TN buffer (+1% DMSO, no conjugate) and hRBCs with 1% Triton X-100 were used as negative and positive controls, respectively. Hemolysis (%) was determined using the following equation: [drawing 6] 6 where Abstreated is the absorbance of hRBC treated with the conjugates, Absconjugate is the absorbance from each conjugate concentration without hRBCs, AbsTriton is the absorbance of Triton X-100 treated hRBCs, and Absbuffer is the absorbance of TN buffer alone. HC50 values were determined by GraphPad Prism 8 software using a log(inhibitor) vs normalized response (variable slope). Experiments were performed using 3 different blood donors.

bEnd.3 cells = test: Cell viability assay (CellTiter-Blue); assay type: cell-based, murine
Description: as §2

TZM-bl cells = assay type: cell-based
Description: TZM-bl Cell Viability Studies
The cytotoxic effects of each PPC on TZM-bl cell cultures were assessed to ensure that HIV inhibition was a result of the compounds effect on the virus and not on the host cells used in the assay. A resazurin reduction fluorometric assay was performed. Resazurin, the active compound in alamarBlue®, is a blue dye that can be reduced to a pink fluorescent intermediate, resorufin, as a result of cell metabolic activity.6 TZM-bl cells were seeded at 2x10^4 cells/well in tissue culture-treated 96-well microplates and incubated for 24 h. Cells were then incubated with serial dilutions (2-fold) of single peptide and porphyrins, or PPC, for 3 h, after which the mixture was replaced with fresh complete medium. Untreated cells (in the absence of peptide-porphyrin combinations) were used as a control. After 42 h, media was replaced with alamarBlue® reagent and incubated for an additional 3 h. Resazurin reduction was quantified by resorufin fluorescent emission intensity, measured in an Infinite M200 microplate reader. Fluorescence emission intensity was collected at 590 nm, using a fixed λ exc of 560 nm. Excitation and emission slits were 9 and 20 nm, respectively. Cell viability was calculated through the following formalism: […]
where I EI corresponds to the resorufin fluorescence emission intensity in the presence of EIs or combination, I control to the fluorescence emission intensity in the absence of EIs and I background to the background fluorescence emission from the non-reduced […]
P5, P4-MP, MP-L-P3 and P4-L-M - are presented here.
TZM-bl cell viability on the concentration range tested.
(1 picture or pasted object on this page, not shown here)
Figure S7. PPCs cytotoxic effects against TZM-bl cells. A resazurin reduction fluorometric assay, dependent on the cell metabolic activity, was used. Cell viability, normalized to the control in the absence of PPC, was measured against three concentrations of each individual PPC: MP-P3 (black), MP-P5 (white), P4-MP (red), MP-L-P3 (blue) and P4-L-MP (green).

O=C(O)CN(CCOCCOCCN(CC(=O)O)CC(=O)O)CC(=O)O [EGTA, reference compound]
% Base (RFI), FD4 Permeability (monolayer integrity post-translocation) (bEnd.3 cell monolayers [1]): 26.8%

CCC1=C(C)c2cc3[nH]c(cc4nc(cc5[nH]c(cc1n2)c(C)c5CCC(=O)O)C(CCC(=O)O)=C4C)c(C)c3CC [MP, mesoporphyrin IX, reference compound]
BBB translocation (in words) (bEnd.3 cell monolayers [2]; bEnd.3 monolayer in vitro model): translocated the monolayer | IC50 (HIV-1NL4-3; Human immunodeficiency virus 1, 100 TCDI50 per well, TZM-bl cells, no-light, read-out: IC50 HIV inhibition, 100 TCDI50): > 50 µM | CC50 at 24 h ([3]; bEnd.3 cells, 24 h, 6.25–50 μM range): > 50 µM | HC50: 50% lytic concentration for human erythrocytes (human erythrocytes; 1 h at 37 °C, 0.1–50 μM range): >50 µM

C=CC1=C(C)c2cc3[nH]c(cc4nc(cc5[nH]c(cc1n2)c(C)c5CCC(=O)O)C(CCC(=O)O)=C4C)c(C)c3C=C [PP, protoporphyrin IX, reference compound]
BBB translocation (in words) (bEnd.3 cell monolayers [2]): translocated the monolayer | % Base (RFI), Translocation (bEnd.3 cell monolayers [2]; mouse, 24 h, 10 μM): 38.3% | % Base (RFI), FD4 Permeability (monolayer integrity post-translocation) (bEnd.3 cell monolayers [1]; mouse, 2 h, 10 μM): 8.7% | IC50 (HIV-1NL4-3; Human immunodeficiency virus 1, TZM-bl, read-out: IC50 HIV inhibition, 100 TCDI50): > 50 µM | CC50 at 24 h [3]: > 50 µM | HC50: 50% lytic concentration for human erythrocytes (human erythrocytes; human, 1 h, pH 7.4): >50 µM

H-AGILKRW-NH2 [P3, AGILKRW-amide, reference compound]
CC50 ([3]; 24 h, 6.25–50 μM range): > 50 µM | HC50: 50% lytic concentration for human erythrocytes (human erythrocytes; 1 h at 37 °C, 0.1–50 μM range): >50 µM

H-SGTQEEY-NH2 [P5, SGTQEEY-amide, reference compound]
CC50 [3]: > 50 µM | HC50: 50% lytic concentration for human erythrocytes (human erythrocytes; red cells of human, 1 h): >50 µM

H-VQQLTKRFSL-NH2 [P1, reference compound]
CC50 ([3]; 24 h, 6.25–50 μM range): > 50 µM | HC50: 50% lytic concentration for human erythrocytes (human erythrocytes; 1 h at 37 °C, 0.1–50 μM range): >50 µM

MP-P3: mesoporphyrin IX coupled to the N-terminal amino group of peptide P3 (AGILKRW-amide) ({mesoporphyrin IX}-AGILKRW-NH2)
% Base (RFI), FD4 Permeability (monolayer integrity post-translocation) (bEnd.3 cell monolayers [1]): 10.2% | IC50 (HIV-1NL4-3; 10 TCDI50 per well (approximate physiological conditions of HIV brain infection), TZM-bl cells, read-out: IC50 HIV inhibition, 10 TCDI50): 1.38 ± 1.1 µM | IC50 (HIV-1NL4-3; 100 TCDI50 per well, TZM-bl cells, no-light, read-out: IC50 HIV inhibition, 100 TCDI50): 16.1 ± 1.3 µM | CC50 (bEnd.3 cells): 48.2 µM | TZM-bl cell viability (in words) (TZM-bl cells): did not alter significantly

P4-PP: protoporphyrin IX coupled to the Lys side-chain NH2 group of peptide P4 (AGILKRWK-amide) (AGILKRWK-NH2; also: protoporphyrin IX on a Lys side chain, Lys not given here)
% Base (RFI), FD4 Permeability (monolayer integrity post-translocation) (bEnd.3 cell monolayers [1]): 9.9% | CC50 (bEnd.3 cells): > 50 µM

P6-MP: mesoporphyrin IX coupled to the C-terminal Lys side chain of peptide P6 (SGTQEEYK-amide) (SGTQEEYK(mesoporphyrin IX)-NH2)
CC50 (bEnd.3 cells; read-out: CC50: 50% cytotoxic concentration toward bEnd.3 cells, 24 h, 6.25–50 μM range): > 50 µM | HC50: 50% lytic concentration for human erythrocytes (human erythrocytes; 1 h at 37 °C, 0.1–50 μM range): >50 µM

PP-P3: protoporphyrin IX coupled to the N-terminal NH2 group of peptide P3 (AGILKRW-amide) ({protoporphyrin IX}-AGILKRW-NH2)
% Base (RFI), FD4 Permeability (monolayer integrity post-translocation) (bEnd.3 cell monolayers [1]): 7.2% | CC50 (bEnd.3 cells): > 50 µM
